Test results: patent publication EP0194794A2, “Saccharide digestion inhibiting composition” (Takeda Chemical Industries, Ltd., priority 1985, dated 1986)
Marks after values point to notes of the source that are not given here.

Key:
Acute toxicity study = assay type: in vivo, rats; details: oral administration, 10 g/kg body weight
Text: When this was mixed with 10^11 cells of any of the 3 different lactic acid producing bacteria used in the present invention and the mixture was orally administered at the same time as AO-128 (10 g/kg body weight), no influence was observed.

[1] = Property of feces in rats fed test ration, 2 or more bacteria (Reference Example 2); assay type: in vivo, Jcl:SD rats; details: 36 to 48 hours
Description: Using 2 or more different bacteria, test rations were prepared by the same procedure as Reference Example 1. However, the amount of potato starch was reduced to adjust for the volume increase due to the cells to provide a composition containing cells of AO-128 and the composition was mixed with feed. The resulting ration was given to 7-week-old Jcl:SD rats (5 animals per group) and the property of feces after 36 to 48 hours was observed. Control rats received a mixture of 10 mg of AO-128 and 100 g of powder feed.

[2] = 28-day feeding of rats with Zucker obesity (Reference Example 4); assay type: in vivo, male rats with Zucker obesity; details: ration fed for 28 days
Description: In the analysis for body fat, the liver, the adipose tissue of the epididymis, the digestive tract and its contents were removed and the remainder was used as a sample. The rations containing the bacterial cells were prepared every other day and fed.

[3] = Influence on dietary hyperglycemia and hyperinsulinemia (Reference Example 3); assay type: in vivo, male Jcl:SD rats; details: mean ± SD, n=6
Description: The rations prepared in the same manner as Reference Example 1 were given to 8-week-old male Jcl:SD rats (6 individuals per group) which had not been fed for 24 hours to investigate how the administration of lactic acid producing bacteria would influence the inhibitory effect of AO-128 on the hyperglycemia and hyperinsuleinemia following a diet intake.
Blood samples were collected from the tail vein immediately before feeding and 30, 60 and 120 minutes after feeding and the plasma glucose and insulin levels were determined.

[4] = Property of feces in rats fed test ration, single organism (Reference Example 1); assay type: in vivo, male Jcl:SD rats; details: 36 to 48 hours
Description: One gram of the mixture prepared in Example 1 and one gram of cells of lactic acid producing bacteria of a kind different from the bacteria used in Example 1 were mixed with 99 g of commercial powder feed (CE-2) to give a test ration. This ration was given to male Jcl:SD rats aged 7 weeks (6 animals per group) and the property of feces excreted after 36 to 48 hours was examined. Control animals received a mixture of 10 mg of AO-128 and 100 g of 'powder feed.

For `OCC(CO)N[C@H]1C[C@](O)(CO)[C@@H](O)[C@H](O)[C@H]1O` [AO-128, N-(1,3-Dihydroxy-2-propyl)valiolamine], which “death in acute toxicity study” value (Acute toxicity study) is on record?
The value was “caused no death”.

What about the “Property of feces ±” value ([1]; number of rats (5 per group) with fecal masses, diffusion of water on filter paper) of the same molecule?
Its value is 2.

And the “Property of feces -” value ([1]; number of rats (5 per group) with fecal masses, no diffusion of water on filter paper)?
Its value is 0.

What about the “Property of feces +” value ([1]; number of rats (5 per group) with feces unformed (watery stool)) of the same molecule?
Its value is 3.

And the diarrhea ([2]; animals with diarrhea / animals in group)?
Its diarrhea is 6/6.

And the body fat ([2]; carcass without liver, epididymal adipose tissue, digestive tract, n=6)?
Its body fat is 19.8±5.4^b %.

What about the body weight gain ([2]; mean ± SD, n=6) of the same molecule?
The body weight gain was 132±28^a g/28day.

And the food consumption ([2]; mean ± SD, n=6)?
The food consumption was 602±56^a g/28day.

What about the food conversion ([2]; mean ± SD, n=6) of the same molecule?
The food conversion was 21.9±3.6^b %.

What about the “Plasma glucose level 30 min.” value ([3]; 30 minutes after feeding) of the same molecule?
The value was 141± 8^a mg/dl.

And the “Plasma glucose level 60 min.” value ([3]; 60 minutes after feeding)?
Its value is 154±11^a mg/dl.

And the “Plasma glucose level 120 min.” value ([3]; 120 minutes after feeding)?
Its value is 152±11^a mg/dl.

What about the “Plasma glucose level 0 min.” value ([3]; immediately before feeding, rats not fed for 24 hours) of the same molecule?
The value was 101 ± 10 mg/dL.

What about the “Property of feces ±” value ([4]; number of rats (6 per group) with fecal masses, a diffusion of water noted on filter paper) of the same molecule?
Its value is 0.

And the “Property of feces -” value ([4]; number of rats (6 per group) with fecal masses, no diffusion of water on filter paper)?
The value was 0.

And the “Property of feces +” value ([4]; number of rats (6 per group) with feces unformed (watery stool))?
Its value is 6.
